Results: US20150233949A1, “DETECTION AND MODULATION OF CYTOCHROME C ACETYLATION” (President and Fellows of Harvard College, priority 2008, published 2015)

Columns and labels:
[1] = tested on: 129/Sv mice; assay: Seizure induction by kainic acid injection in mice; format: in vivo, mouse; details: 30 mg/kg KA i.p.; WT and SIRT3 KO, female and male mice
Method: Littermate 129/Sv (6-8 weeks old) mice were used for the studies. SIRT3−/− mice were in a 129/sv background. Mice were housed under controlled temperature (25° C.) and light, and fed normal chow.
(§1) To induce seizures, both WT female (n=6) and KO female (n=5) mice and WT male (n=5) and KO male (n=6) mice were injected i.p. with 30 mg/kg KA.

[2] = tested on: hippocampus and amygdala neurons; assay: Loss of hippocampus and amygdala neurons after kainic acid injections; format: in vivo, mouse; details: FIG. 14
Method: as §1
The effect of kainic acid injections on memory function was also investigated by examining hippocampus and amygdala neurons.

[3] = tested on: primary cerebellar granule neurons; assay: Cell survival measurement (MTT assay) after kainic acid treatment; format: cell-based, mouse; details: T3-/- versus wild-type neurons; 50 uM kainic acid, 4 hr and 24 hrs; FIG. 9
Method: SH-SY5Y cells were cultured in Dulbecco's Modified Eagle's Medium (DMEM) supplemented with 10% Fetal Calf Serum (FCS). SH-SY5Y cells were transfected with Lipofectamine 2000 (Invitrogen, Carlsbad, Calif.). Granule neuron cultures were prepared from cerebella of postnatal day 5 mouse pups. Neurons were placed on polyornithine-coated 96-well plates and grown in Basal Medium Eagle (BME) (Sigma, St. Louis, Mo.) supplemented with 10% calf serum (Hyclone Laboratories, Logan, Utah), 25 mM KCl, 2 mM glutamine, penicillin, and streptomycin. One day after cultures were prepared they were treated with 10 μM of the antimitotic agent cytosine-D-arabinofuranoside (Sigma, St. Louis, Mo.) to prevent the proliferation of non-neuronal cells.
The resistance to kainic acid of primary granule neurons derived from WT and SIRT3 null mice was quantified as the percentage of live cells after a 4 hr and 24 hrs treatment with 50 uM Kainic acid. The quantitation of dead cells upon Kainic acid treatment was carried out using the MTT assay was performed using CellTiter 96 Nonradioactive Cell Proliferation Assay kit (Promega).

For C=C(C)[C@H]1CN[C@H](C(=O)O)[C@H]1CC(=O)O [kainic acid], the seizures [1] was “caused seizures in all mice”, the “loss of hippocampus and amygdala neurons” value [2] was “loss of hippocampus and amygdala neurons” and the cell survival [3] was “reduced cell survival”.
